Where two headings read alike, the source gives them in different places.
Assays:
[1] = test system: SH-SY5Y cells; details: for IC10, SH-S5Y5, NOI: cytotoxicity, NOI assay cells
Experimental: (§1) Cell culture conditions and bioassay protocols including response detection are provided in Text S2.1–2.4 and Table S3. − Cell viability was determined from cell confluency using an IncuCyte S3 Live-Cell Analysis System (Sartorius AG, Essen, Germany) before and after exposure, except for SH-SY5Y cells (live–dead staining with Nuclear Green LcS1 and propidium iodide, Abcam, UK). For metabolic activation experiments, cell viability was assessed using the ToxBLAzer DualScreen Kit (Thermo Fisher Scientific) to capture the remaining toxicity in ERα-UAS-bla GripTite after treatment with the aCYP catalyst (details in Text S2.4). […]
We measured the cytotoxicity of BPA and its alternatives in HEK293H (PPARγ), HEK293T (ERα), H4IIe (AhR CALUX), MCF7 (ARE/MMP), and differentiated SH-SY5Y cells (Table S6). […]
medium, supplemented with 2% B-27 Supplement and 2 mM GlutaMAX Supplement. SH - SY5Y cells were differentiated with 10 µM all-trans retinoic acid prior to the assay.
S2.2: Cell Seeding and Incubation. For all bioassays, cell suspensions in the respective assay medium were dispensed into each well of 384-well plates using a MultiFlo Dispenser (Biotek, (now Agilent), Winooski, VT, U.S.). After seeding, the plates were incubated at 37° C and 5% […]
NYC, U.S.) for AhR: 3250 cells/well. Black Collagen I coated plates were used (Product No.
S2.3: Chemical Dosing and Assay Analysis Procedures. The dosing procedure and high-throughput assay workflow have been described in detail before. 9 The dosing concentrations […]
Stock solutions were then either added directly to the respective cell culture medium or evaporated under nitrogen, followed by replenishment with fresh medium. The final solvent content in each well was kept below 1% for methanol, 0% for acetonitrile.
Dosing plates were prepared as 11 -step serial dilutions using a Hamilton Microlab Star robotic system (Hamilton, Bonaduz, Switzerland), and chemicals were dosed in duplicates by transferring 10 μL twice from the dosing plates to the cell plates . After quantifying cell confluency as described in S2. 4., the exposed cells were incubated at 37° C and 5% CO₂ for an additional 24 h. All chemicals were tested in all assays with at least three independent […]
S2.4: Cell Viability Measurement s and bioanalytical protocols . The confluency as a measure of cell viability was determined with an IncuCyte S3 Live -Cell Analysis System (Sartorius AG, Essen, Germany). With this method the confluency of cells in a microscopy image are normalized to control wells without cells and compared before and after 24 hours of exposure.
This method has been described previously 13. Cell viability of SH-SY5Y cells was measured […]
propidium iodide (PI, Abcam, Cambridge, U.K.).14 Nuclear Green LCS1 is a membrane-permeable dye that stains the nuclei of all cells, whereas PI only enters cells with compromised membrane integrity (non-viable cells). After staining, live cells show green nuclei without red fluorescence, while dead cells display both green and red nuclear fluorescence due to PI […]
intercalation. […]

[2] = test system: ERα-UAS-bla GripTite cells
Experimental: as §1
The TK-Ratio method was used to evaluate the impact of abiotic CYP oxidation on the potency of tested compounds. […]
For experiments with the preceding aCYP activation, ERα cell viability was additionally calculated from the readout of the ToxBLAzer reagent. The ToxBLAzer assay was conducted following the manufacturer's instructions (Thermo Fisher, Waltham, MA, U.S.).13 Fluorescence intensity was recorded at the start of the assay ( Fwavelength(0h)) and after a 2-hour incubation at […]
eq. S11 for normalization.
Cell viability = F665nm(2h, sample)-F665nm(0h, average cell-free) (S11) F665nm(2h, average unexposed)-F665nm(0h, average cell-free) […]
the specific endpoint to avoid artifacts from cytotoxicity burst. 15
S2.5: Concentration-response curves (CRCs)
To avoid bias from cytotoxicity burst at higher concentrations, all concentrations exceeding the IC10 for cytotoxicity were excluded in the CRC modeling of effects but otherwise cytotoxicity and effects were fitted with the same model equations (response stands for cytotoxicity or effect). For ERα, AhR, ARE and PPARγ preferably a linear model was fitted to the linear portion of CRC up to maximum 30% effect (eq. S12),16 but in some cases it was necessary to choose a sigmoidal log-concentration-response model, specifically a log-logistic model (eq. S13), to derive effect concentrations and cytotoxicity. […]
This was done using the
AutomatedBioassayScreening19 published by Braun et al.,20 which also included an algorithm to choose the best model between eq. S12 and eq. S13.
Response (%) = slope × C (S12) […]
logEC =logEC − 1 ∙log (max−min − 100%) (S14)

[3] = Abiotic CYP (aCYP) oxidation, remaining parent compound (Cparent-Ratio); details: for Cparent-Ratio Rep.1 %: Table S9, replicate 1; for Cparent-Ratio Rep.2 %: Table S9, replicate 2
Experimental: The mixtures were adjusted to a final volume of 100 μL with acetonitrile (ACN). The reaction mix was incubated for 15 min at 30 °C and 1000 rpm on a Bioshake iQ orbital shaker from QInstruments (Jena, Germany). Additionally, a mixture without test compounds was prepared as a control. Subsequently, 10 μL of the reaction mixture was transferred into a conical dosing vial and evaporated under a nitrogen flow.
For chemical analysis, 10 μL of the reaction mixture was concentrated under vacuum (CentriVap, Labconco, Kansas City, MO, USA), diluted to 1 mg/L in ACN or ethyl acetate. The chemical analysis of the reaction mixtures was performed using liquid chromatography (LC) and gas chromatography (GC) coupled with various detection techniques, preferably Multiple Reaction Monitoring (MRM). Data acquisition and processing were carried out using the software MassHunter. Quantification was based on external calibrations.
The Cparent-Ratio quantifies the extent of oxidation of the parent compound after the abiotic CYP reaction. It was calculated as the ratio of the parent compound concentration after oxidation (C parent, after oxidation) to its concentration before oxidation (C parent, before oxidation) as shown in eq . […] 8 Cparent‐Ratio=Cparent,after oxidation/Cparent,before oxidation

[4] = NOI bioassay cytotoxicity, dosing range all, linear model
[5] = NOI bioassay cytotoxicity, dosing range all, log-logistic model
[6] = NOI bioassay cytotoxicity, dosing range all
[7] = Table S10, TKcytotoxicity-Ratio
[8] = Table S9, loss of parent after aCYP oxidation
[9] = Table S9, mean of two replicate experiments
[10] = Table S9, replicate 1, as fraction
[11] = Table S9, replicate 2, as fraction
[12] = Table S11, measured simultaneously with bioassay
[13] = Table S11, TKcytotoxicity-Ratio

SMILES	IC10, linear [1, 4]	logIC10 [1, 5]	IC10, linear transformed [1, 6]	Toxic ratio (TR) TRNOI ([1]; against baseline cytotoxicity)	IC10, SH-S5Y5, NOI [1] [µM]	TKcytotoxicity [2, 7]	% Loss [3, 8] [%]	Cparent-Ratio Mean [3, 9]	Cparent-Ratio Rep.1 % [3] [%]	Cparent-Ratio Rep.1 [3, 10]	Cparent-Ratio Rep.2 % [3] [%]	Cparent-Ratio Rep.2 [3, 11]	other results
CC1(C)[C@H](O)C(C)(C)[C@H]1O [Trans TMCD]	no cytotoxicity	no cytotoxicity											
CC(C)(c1ccc(O)c(-c2ccccc2)c1)c1ccc(O)c(-c2ccccc2)c1 [BPPH, 2,2-Bis(2-hydroxy-5-biphenylyl)propane]	no cytotoxicity	-4.64	2.31E-05	0.08	23.1	0.11	22	0.78	89.82	0.90	66.60	0.67	% Loss ([3]; Table S11): 22%; Cparent-Ratio Mean [3, 12]: 0.78; Cparent-Ratio Rep.1 [3, 12]: 0.78; Cparent-Ratio Rep.2 [3, 12]: 0.78
O=S(=O)(c1ccc(O)cc1)c1ccccc1O [2,4-BPS, 2,4'-Dihydroxydiphenyl sulfone]													Toxic ratio (TR) TRNOI ([1]; human, 24 h): 1.29; logIC10 ([1]; human, 24 h): -3.31; TKcytotoxicity ([2]; human): 1.61
Cc1cc(Cc2cc(C)c(O)c(C)c2)cc(C)c1O [TMBPF, Bis(3,5-dimethyl-4-hydroxyphenyl)methane]	1.62E-05	-4.90	1.27E-05	0.73	12.7	0.35	31	0.69	58.94	0.59	79.26	0.79	% Loss ([3]; Table S11): 56%; Cparent-Ratio Mean [3, 12]: 0.44; Cparent-Ratio Rep.1 [3, 12]: 0.29; Cparent-Ratio Rep.2 [3, 12]: 0.59
Oc1ccc(Sc2ccc(O)cc2)cc1 [BPT, 4,4'-Thiodiphenol]	1.40E-04	no cytotoxicity			140	1.35	71						TKcytotoxicity [2, 13]: 1.00; % Loss ([3]; Table S11): 87%
O=C(OCc1ccccc1)c1ccc(O)cc1 [BzPB, Benzyl 4-hydroxybenzoate]	no cytotoxicity	-3.41	3.89E-04	0.07	389	1.10	-22	1.22	115.59	1.16	128.10	1.28	
CC(C)Oc1ccc(S(=O)(=O)c2ccc(O)cc2)cc1 [D8, 4-((4-Isopropoxyphenyl)sulfonyl)phenol]				0.22		0.94	-13	1.13	114.96	1.15	110.37	1.10	IC10, linear [1]: no cytotoxicity; logIC10 ([1]; human, 24 h): -3.31
CC1(C)[C@H](O)C(C)(C)[C@H]1O [t-TMCD, trans-2,2,4,4-Tetramethyl-1,3-cyclobutanediol]						1.74	0.48	1.00	90.48	0.90	108.56	1.09	
Oc1ccc(C2(c3ccc(O)cc3)CCCCC2)cc1 [BPZ, 1,1'-Bis(4-hydroxyphenyl)cyclohexane]	7.12E-05	-4.10	7.89E-05		78.9	0.53	12						
CC(C)CC(C)(c1ccc(O)cc1)c1ccc(O)cc1 [BP-MIBK, 4,4'-(1,3-Dimethylbutylidene)diphenol]													IC10, linear [1]: no cytotoxicity; logIC10 ([1]; human, 24 h): -4.10; TKcytotoxicity ([2]; human): 0.48
CC1(C)C(O)C(C)(C)C1O (racemic) [r-TMCD, 2,2,4,4-Tetramethyl-1,3-cyclobutanediol (racemate)]	no cytotoxicity	no cytotoxicity					1.72	0.98	94.58	0.95	101.99	1.02	
Oc1ccc(Cc2ccc(O)cc2)cc1 [BPF, Bis(4-hydroxyphenyl)methane]	5.56E-04	-3.24	5.69E-04		569	0.75							TKcytotoxicity [2, 13]: 0.44
CCC(C)(c1ccc(O)cc1)c1ccc(O)cc1 [BPB, 4,4'-(Butane-2,2-diyl)diphenol]	2.31E-04	-3.78	1.67E-04	0.10	167	0.24							
O=S(=O)(c1ccc(O)cc1)c1ccc(O)cc1 [BPS, 4,4'-Sulfonyldiphenol]	1.85E-04	-3.71			195								
CC(c1ccc(O)cc1)c1ccc(O)cc1 [BPE, 4,4′-Ethylidenbisphenol]	5.29E-04	-3.55	2.79E-04		279	0.63							
CC(C)(c1cc(Cl)c(O)c(Cl)c1)c1cc(Cl)c(O)c(Cl)c1 [TCBPA, 2,2',6,6'-Tetrachlorobisphenol A]	3.70E-08	no cytotoxicity				0.85							TKcytotoxicity [2, 13]: 0.40
Oc1ccc(C(c2ccc(O)cc2)(C(F)(F)F)C(F)(F)F)cc1 [BPAF, 4,4'-(1,1,1,3,3,3-Hexafluoropropane-2,2-diyl)diphenol]	7.35E-05	-4.18	6.64E-05		66.4	1.14							
CC(C)(c1ccc(OCC2CO2)cc1)c1ccc(OCC2CO2)cc1 (stereo not drawn) [BADGE, Bisphenol A diglycidyl ether]	5.39E-05	-4.24	5.73E-05	0.32	57.3								
CC(c1ccccc1)(c1ccc(O)cc1)c1ccc(O)cc1 [BPAP, 4,4'-(1-Phenylethylidene)bisphenol]	no cytotoxicity	-3.97	1.06E-04		106								TKcytotoxicity [2, 13]: 0.76

Source: publication PMC12392461, “Beyond Estrogenicity: A Comparative Assessment of Bisphenol A and Its Alternatives in In Vitro Assays Questions Safety of Replacements” (Environmental Science & Technology, 2025)
